Test results reported in US20100016340A1, “PHARMACEUTICAL COMPOUNDS” (Astex Therapeutics Limited, priority 2006, published 2010).
pIC50: −log10 of the molar value. Structures can show the parent of a compound that is named as a salt.

Tests used:
PKB-PIF = biological target: T1, PKB-PIF (Homo sapiens, UniProt P31751); assay: Measurement of PKB kinase inhibitory activity (IC50), 33P-ATP phosphocellulose filter assay; format: biochemical; details: 0.6 nM enzyme, 30 μM ATP, 25 μM AKTide-2T substrate, 20 minutes; read-out: IC50, concentration of test compound required to inhibit 50% of the PKB activity
T1 construct: made in house
T1 sequence (P31751 with tags, fused parts or gaps limits assumed): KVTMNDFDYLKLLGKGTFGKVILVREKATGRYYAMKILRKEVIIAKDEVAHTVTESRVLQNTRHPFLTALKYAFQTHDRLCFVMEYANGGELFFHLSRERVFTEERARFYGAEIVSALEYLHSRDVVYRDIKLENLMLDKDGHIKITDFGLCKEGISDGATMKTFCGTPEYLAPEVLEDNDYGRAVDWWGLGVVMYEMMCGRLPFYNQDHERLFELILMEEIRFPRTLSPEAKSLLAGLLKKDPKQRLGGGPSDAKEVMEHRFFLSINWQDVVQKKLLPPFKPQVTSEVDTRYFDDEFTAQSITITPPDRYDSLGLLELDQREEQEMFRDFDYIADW
Method: The inhibition of protein kinase B (PKB) activity by compounds can be determined essentially as described by Andjelkovic et al. (Mol. Cell. Biol. 19, 5061-5072 (1999)) but using a fusion protein described as PKB-PIF and described in full by Yang et al (Nature Structural Biology 9, 940-944 (2002)). […] A final concentration of 0.6 nM enzyme is used in a buffer that includes 20 mM MOPS pH 7.2, 30 μM ATP/γ^33P-ATP and 25 μM substrate. Compounds are added in DMSO solution to a final DMSO concentration of 2.5%. The reaction is allowed to proceed for 20 minutes before addition of excess orthophosphoric acid to quench activity. The reaction mixture is transferred to a phosphocellulose filter plate where the peptide binds and the unused ATP is washed away. After washing, scintillant is added and the incorporated activity measured by scintillation counting.
The % inhibition of the PKB activity is calculated and plotted in order to determine the concentration of test compound required to inhibit 50% of the PKB activity (IC50).

PKA catalytic domain = biological target: T2, PKA catalytic domain (Homo sapiens, UniProt P17612); assay: Measurement of PKA kinase inhibitory activity (IC50), 33P-ATP filter plate assay; format: biochemical; details: 1 nM enzyme, 40 μM ATP, 20 minutes; read-out: IC50, concentration of test compound required to inhibit 50% of the PKA activity
T2 construct: using the PKA catalytic domain from Upstate Biotechnology (#14-440); purchased Upstate Biotechnology 14-440
Method: Compounds of the invention can be tested for PK inhibitory activity using the PKA catalytic domain from Upstate Biotechnology (#14-440) and the 9 residue PKA specific peptide ([…]), also from Upstate Biotechnology (#12-257), as the substrate. A final concentration of 1 nM enzyme is used in a buffer that includes 20 mM MOPS pH 7.2, 40 μM ATP/γ^33P-ATP and […] substrate. Compounds are added in dimethylsulphoxide (DMSO) solution to a final DMSO concentration of 2.5%. The reaction is allowed to proceed for 20 minutes before addition of excess orthophosphoric acid to quench activity. Unincorporated γ^33P-ATP is then separated from phosphorylated proteins on a Millipore MAPH filter plate. The plates are washed, scintillant is added and the plates are then subjected to counting on a Packard Topcount.
The % inhibition of the PKA activity is calculated and plotted in order to determine the concentration of test compound required to inhibit 50% of the PKA activity (IC50).

Structure (SMILES) | pIC50 (PKB-PIF) | pIC50 (PKA catalytic domain)
NC1(C(=O)NCc2ccc(Cl)c(-c3ccccc3)c2)CCN(c2ncnc3[nH]ccc23)CC1 [Example 2, 4-Amino-1-(7H-pyrrolo[2,3-d]pyrimidin-4-yl)-piperidine-4-carboxylic acid (6-chloro-biphenyl-3-ylmethyl)-amide hydrochloride] | > 6.00 | 
NCC1(c2cccc(-c3ccccc3)c2)CCN(c2ncnc3[nH]ccc23)CC1 [Example 4, C-[4-Biphenyl-3-yl-1-(7H-pyrrolo[2,3-d]pyrimidin-4-yl)piperidin-4-yl]methylamine] | > 6.00 | > 5.00
COc1ccc(-c2cccc(C3(CN)CCN(c4ncnc5[nH]ccc45)CC3)c2)cc1 [Example 5, C-[4-(4′-Methoxybiphenyl-3-yl)-1-(7H-pyrrolo[2,3-d]pyrimidin-4-yl)piperidin-4-yl]methylamine] | > 6.00 | 
NC1(C(=O)NCc2ccc(Cl)cc2)CCN(c2ncnc3[nH]c(=O)[nH]c23)CC1 [Example 6, 4-Amino-1-(8-oxo-8,9-dihydro-7H-purin-6-yl)-piperidine-4-carboxylic acid 4-chloro-benzylamide] |  | > 5.00
NC1(C(=O)NCc2ccc(Cl)cc2F)CCN(c2ncnc3[nH]c(=O)[nH]c23)CC1 [Example 7, 4-Amino-1-(8-oxo-8,9-dihydro-7H-purin-6-yl)-piperidine-4-carboxylic acid 4-chloro-2-fluoro-benzylamide] | > 6.00 | > 5.00
NCC1(c2ccc(OC(F)(F)F)cc2)CCN(c2ncnc3[nH]c(=O)[nH]c23)CC1 [Example 10, 6-[4-Aminomethyl-4-(4-trifluoromethoxyphenyl)piperidin-1-yl]-7,9-dihydropurin-8-one] | > 6.00 | 
NC1(Cc2ccc(Cl)cc2)CCN(c2ncnc3[nH]c(=O)[nH]c23)CC1 [Example 11, 6-[4-Amino-4-(4-chlorobenzyl)piperidin-1-yl]-7,9-dihydropurin-8-one] | > 6.00 | 
NC1(c2ccc(Cl)cc2)CCN(c2ncnc3[nH]c(=O)[nH]c23)CC1 [Example 12, 6-[4-Amino-4-(4-chlorophenyl)piperidin-1-yl]-7,9-dihydropurin-8-one] | > 6.00 | > 5.00
CC(C)(C)c1ccc(CC2(N)CCN(c3ncnc4[nH]ncc34)CC2)cc1 [Example 13, 4-(4-tert-Butyl-benzyl)-1-(1H-pyrazolo[3,4-d]pyrimidin-4-yl)-piperidin-4-ylamine] | > 6.00 | 
